Source: patent publication US10478482B2, “Vaccines for prevention and treatment of tuberculosis” (ALARUM DEVELOPMENT LTD, priority 2011, dated 2019)

Tests used:
[1] = test system: serum from patients with TB; assay: Antibody recognition of peptides by serum from patients with TB; format: binding, human; conditions: for Average int. / N. of slide (frequency of recognition): serum from the group TB; for N. of slide (frequency of recognition): out of 9 individuals
From the text: (§1) Serum was obtained from patients with sarcoidosis (FIG. 4A) and from patients with TB (FIG. 4B). The number indicate the frequency of recognition, e.g. 1/9 individuals up to 9/9 individuals. The listed peptides are only listed if they are present in one group (sarcoidosis versus tuberculosis) and if the peptide is never recognized in any serum from the respective control group. […] Strong IgG response requires strong T-cell help which lends support that these antigens are also recognized by T-cells.

[2] = test system: serum from patients with sarcoidosis; assay: Antibody recognition of peptides by serum from patients with sarcoidosis; format: binding, human; conditions: for Average int. / N. of slide (frequency of recognition): serum from the group sarcoidosis; for N. of slide (frequency of recognition): out of 9 individuals
From the text: as §1

peritoneal macrophages = assay: Cytokine induction in peritoneal macrophages; format: cell-based, mouse; conditions: FIG. 10
[3] = test system: IFNγ production in freshly harvested Heparin-blood; format: cell-based, human
PBMCs = format: cell-based, monkey

MTAPVWLASPPEVHS [CAE55538-PPE family protein_1]
Average int. [1]: 0.8461 | N. of slide (frequency of recognition) [1]: 8

GGGNTGSGNIGNGNK [CAE55613-PPE family protein_193]
Average int. [2]: 1.2266 | N. of slide (frequency of recognition) [2]: 9

GLYQVVPGIYQVRGF [CAA18084-possible hydrolase_85]
Average int. [1]: 0.5432 | N. of slide (frequency of recognition) [1]: 8

TRLGIRLVIVLVRRW [CAB05419-possible glycosyl transferase_241]
Average int. [1]: 0.9264 | N. of slide (frequency of recognition) [1]: 9

APALMDVEAAYEQMW [CAE55281-PPE family protein_133]
Average int. [2]: 1.6787 | N. of slide (frequency of recognition) [2]: 9

AAGNNVTVFGYSQSA [CAE55427-PPE family protein_289]
Average int. [1]: 0.4545 | N. of slide (frequency of recognition) [1]: 6

LSGDNQQGFNFAGGW [CAE55276-PPE family protein_1117]
Average int. [2]: 1.6435 | N. of slide (frequency of recognition) [2]: 9

AWVSRGAHKLVGALE [CAB10951-cytotoxin haemolysin homologue TLYA_61]
Average int. [1]: 0.7175 | N. of slide (frequency of recognition) [1]: 7

NANFGGGNGSAFHGQ [CAE55320-PPE family protein_205]
Average int. [2]: 1.4131 | N. of slide (frequency of recognition) [2]: 9

Possible glycosyltransferase [CAB05419/Rv2957]
induction of IL-10 (peritoneal macrophages): little induction | induction of IL-12 (peritoneal macrophages): Strong induction | induction of TGF-β (peritoneal macrophages): Strong induction | induction of TN-Fa (peritoneal macrophages): little induction | antigen-specific T-cell responses (IFNγ) [3]: can be detected | recognition by serum from the group sarcoidosis (in words) [2]: never | recognition by serum from the group TB (in words) [1]: most frequently recognized | intracellular cytokines, here represented by IL-2 (PBMCs): Detection of intracellular cytokines

GSSAMILAAYHPQQF [CAB10044-secreted antigen 85-B FBPB (85B)A_169]
Average int. [2]: 0.6077 | N. of slide (frequency of recognition) [2]: 9

SSGKPGRDPEAGRYG [CAB02482-probable lipase lipe_385]
Average int. [2]: 1.3190 | N. of slide (frequency of recognition) [2]: 9

VIGGIGPIHVQPIDI [CAE55585-PPE family protein_865]
Average int. [2]: 0.7433 | N. of slide (frequency of recognition) [2]: 9

NTGSYNMGDFNPGSS [CAE55416-PPE family protein_385]
Average int. [1]: 0.9479 | N. of slide (frequency of recognition) [1]: 7

QWILHMAKLSAAMAK [CAA17973-conserved hypothetical alanine and_193]
Average int. [1]: 0.4333 | N. of slide (frequency of recognition) [1]: 6
